Measured values taken from US20230150997A1, “EIF4E INHIBITORS AND USES THEREOF” (PIC Therapeutics, Inc., priority 2021, published 2023).

Target: T1, Human eIF4E (Homo sapiens, UniProt P06730)
T1 construct: Human eIF4E (aa 28-217) with a C-terminal His-tag; made in house
Test: Human eIF4E/4G2 binding assay (TR-FRET)
Settings: purified human eIF4E (aa 28-217), biotin labeled 4G2 peptide, 4 hours preincubation at room temperature
Description: Example 3. Compound Testing in Human eIF4E/4G2 Binding Assay
Human eIF4E (aa 28-217) with a C-terminal His-tag was expressed in E. coli in inclusion bodies. The protein was solubilized with 8 M urea and purified under denaturing conditions using nickel-charged HisTrap HP columns (GE Healthcare). The purified protein was then refolded by diluting in 20 mM Hepes pH 7.0, 0.5 M NaCl, 1 mM DTT, 1 mM EDTA, 0.5 M arginine plus 6 M urea, and then dialyzing overnight into the same buffer without the urea. The protein was further dialyzed into 20 mM Hepes, pH 6.5, 50 mM NaCl, 1 mM EDTA, 1 mM DTT, and concentrated using Hitrap SP sepharose FF columns (GE Healthcare). The concentrated protein was dialyzed into 20 mM Hepes, pH 7.0, 0.5 M NaCl, 5 mM DTT and 10% glycerol, and stored at -80° C. until use.
Test compounds (3.43 mM stock in DMSO) were diluted 2-fold in series in DMSO (10 concentration points). Compound solutions (1.2 µl/well) were added into black 384-well polypropylene microplates (Matrix, Thermal Scientific). Twenty-two microliters per well of Assay Buffer (50 mM NaPi, pH 6.5, 50 mM KCl, 1 mM DTT and 0.5 mg/ml gamma globulin) and eight microliters per well of 82.5 nM purified eIF4E in Assay Buffer were added. The samples were incubated at room temperature (20-23° C.) for 4 hours. Biotin labeled 4G2 peptide (Ac-Lys-Gln-Tyr-Asp-Arg-Glu-Phe-Leu-Leu-Asp-Phe-Gln-Phe-Met-Pro-Lys(Aha-Bio)-NH2, 1.75 µM stock in DMSO) was diluted to 0.14 µM in Assay Buffer (without DTT) and 5 µl/well was added. The samples were incubated at room temperature for 20 min. Five microliters per well of 6.4 nM Eu-streptavidin (Eu-SA, Perkin Elmer) and 80 nM Allophycocyanin (APC)-anti His antibody (Columbia Biosciences) in Assay Buffer (without DTT) were then added and the samples were incubated at room temperature for 20 min.
Assay signals were monitored by reading excitation at 340 nm and emission fluorescence at 615 nm and 665 nm on an Envision reader (Perkin Elmer). Normalized TR-FRET (time-resolved fluorescence resonance energy transfer) assay signal (Rn) was calculated by the formula: Rn = [(A-Ba-C x D)/(D-Bd)] x (Dc- Bd) • Where A is the fluorescence intensity of the sample at 665 nm, • D is the fluorescence intensity of the sample at 615 nm, • Ba and Bd are plate backgrounds at 665 nm and 615 nm, respectively, • Dc is the fluorescence intensity of 0.78 nM Eu-SA in the assay buffer at 615 nm • The cross-talk factor (C) is determined by the following formula: • C = (Ac- Ba)/(Dc-Bd) • Where Ac is the fluorescence intensity of 0.78 nM Eu-SA in the assay buffer at 665 nm.
IC50 values were calculated using xLFit program (IDBS). Table 2 below lists […] of some compounds, wherein A represents IC50 ≤ 0.5 µM; B represents 0.5 uM < IC50 ≤ 1 µM; and C represents IC50 > 1 µM.

T1 sequence (P06730 28-217): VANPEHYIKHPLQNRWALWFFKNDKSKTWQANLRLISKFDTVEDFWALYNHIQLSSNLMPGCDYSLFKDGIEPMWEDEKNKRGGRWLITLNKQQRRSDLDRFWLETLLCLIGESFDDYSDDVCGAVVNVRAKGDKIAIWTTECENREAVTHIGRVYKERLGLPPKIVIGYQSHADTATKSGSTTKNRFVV

Compound	IC50 [µM]
CCOc1cccc(-c2nc(Nc3cc(C(=O)O)c(-c4cccs4)cn3)sc2CC(C)C)c1 [I-130, 2-((4-(3-ethoxyphenyl)-5-isobutylthiazol-2-yl)amino)-5-(thiophen-2-yl)isonicotinic acid]	0.5 to 1
Cc1ccc(-c2nc(Nc3ncc(-c4cccs4)cc3C(=O)O)sc2CC(C)C)s1 [I-141]	≤ 0.5
COCCOc1cccc(-c2nc(Nc3ncc(-c4cccs4)cc3C(=O)OC)sc2CC(C)C)c1 [I-148, methyl 2-((5-isobutyl-4-(3-(2-methoxyethoxy)phenyl)thiazol-2-yl)amino)-5-(thiophen-2-yl)nicotinate]	> 1
